We go through 8 compounds from patent publication US20120121591A1 (priority 2009, published 2012).

Type in all cases: cell-based
Assay [1] addresses hKv1.3 (Homo sapiens, UniProt P22001). In words: cell-based. The conditions noted are these: Kv1.3 (IWQ) IC50 (nM, Avg).
Assay [2] has as its system IL-2 secretion from T cells in human whole blood. The conditions noted are these: read-out: WB (IL-2) IC50 (nM, Avg).
For assay [3], the system named is IFN-g secretion from T cells in human whole blood. The conditions noted are these: read-out: WB (IFNg) IC50 (nM, Avg).

hKv1.3, sequence (P22001 whole entry): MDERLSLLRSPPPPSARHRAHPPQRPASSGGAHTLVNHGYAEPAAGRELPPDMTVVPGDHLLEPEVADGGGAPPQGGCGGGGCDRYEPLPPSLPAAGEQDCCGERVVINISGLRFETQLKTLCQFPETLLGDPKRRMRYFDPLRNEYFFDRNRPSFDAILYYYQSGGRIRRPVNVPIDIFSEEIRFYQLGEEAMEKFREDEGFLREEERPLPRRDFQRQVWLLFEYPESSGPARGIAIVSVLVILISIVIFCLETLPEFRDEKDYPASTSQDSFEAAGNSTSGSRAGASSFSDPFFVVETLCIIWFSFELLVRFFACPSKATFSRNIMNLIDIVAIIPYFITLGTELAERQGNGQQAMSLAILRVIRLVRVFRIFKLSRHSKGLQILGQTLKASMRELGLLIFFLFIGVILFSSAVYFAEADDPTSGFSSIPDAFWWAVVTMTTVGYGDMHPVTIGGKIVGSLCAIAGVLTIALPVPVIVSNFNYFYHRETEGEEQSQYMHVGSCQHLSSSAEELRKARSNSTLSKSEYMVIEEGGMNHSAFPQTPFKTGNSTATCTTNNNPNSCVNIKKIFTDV

In general, IC50 refers to the concentration at which inhibition is half-maximal. Consider `CCCC[C@@H]1NC(=O)[C@H](CO)NC(=O)[C@H](Cc2c[nH]cn2)NC(=O)[C@H](CCCCN)NC(=O)[C@@H]2CSSC[C@@H]3NC(=O)[C@H]([C@@H](C)O)NC(=O)[C@H](CCCCN)NC(=O)[C@H](CCCNC(=N)N)NC(=O)[C@H](CSSC[C@H](NC(=O)[C@H](CCCNC(=N)N)NC(=O)[C@H](CO)NC(=O)[C@H](CCCCN)NC(=O)[C@@H]4CCCN4C(=O)[C@H]([C@@H](C)CC)NC(=O)[C@H]([C@@H](C)O)NC(=O)[C@H](CC(=O)O)NC(=O)[C@H]([C@@H](C)CC)NC(=O)[C@@H](NC(=O)[C@H](CO)NC(=O)[C@@H](N)CCCNC(=N)N)CSSC[C@@H](C(N)=O)NC(=O)[C@H]([C@@H](C)O)NC(=O)CNC3=O)C(=O)N[C@@H]([C@@H](C)O)C(=O)N[C@@H](C)C(=O)N[C@@H](Cc3ccccc3)C(=O)N[C@@H](Cc3c[nH]cn3)C(=O)N2)NC(=O)[C@H](Cc2ccccc2)NC(=O)[C@H](CO)NC(=O)[C@H](CC(C)C)NC(=O)[C@H](CCCNC(=N)N)NC(=O)[C@H](Cc2ccc(O)cc2)NC(=O)[C@H](CCCCN)NC1=O` [[His, Nle21]ShK-amide], for which the results for the IC50 in assay [1], in assay [2] and in assay [3] were 0.139 nM, 0.24 nM and 0.148 nM, respectively.
Take `CC[C@H](C)[C@@H]1NC(=O)[C@@H](NC(=O)[C@H](CO)NC(=O)[C@@H](N)CCCCN)CSSC[C@@H](C(=O)O)NC(=O)[C@H]([C@@H](C)O)NC(=O)CNC(=O)[C@@H]2CSSC[C@@H]3NC(=O)[C@H](CCC(N)=O)NC(=O)[C@H](Cc4ccccc4)NC(=O)[C@H](C)NC(=O)[C@H]([C@@H](C)O)NC(=O)[C@H](CSSC[C@H](NC(=O)[C@H](Cc4ccccc4)NC(=O)[C@H](CO)NC(=O)[C@H](CC(C)C)NC(=O)[C@H](CCCNC(=N)N)NC(=O)[C@H](Cc4ccc(O)cc4)NC(=O)[C@H](CCCCN)NC(=O)[C@H](CCSC)NC(=O)[C@H](CO)NC(=O)[C@H](Cc4c[nH]cn4)NC(=O)[C@H](CCCCN)NC3=O)C(=O)N[C@@H](CCCNC(=N)N)C(=O)N[C@@H](CCCCN)C(=O)N[C@@H]([C@@H](C)O)C(=O)N2)NC(=O)[C@H](CCCNC(=N)N)NC(=O)[C@H](CO)NC(=O)[C@H](CCCCN)NC(=O)[C@@H]2CCCN2C(=O)[C@H]([C@@H](C)CC)NC(=O)[C@H]([C@@H](C)O)NC(=O)[C@H](CC(=O)O)NC1=O` [[Lys1]ShK]: the IC50 in assay [1] turned out to be 0.158 nM; in assay [2] it was 0.035 nM; in assay [3] it was 0.073 nM.
With `CC[C@H](C)[C@@H]1NC(=O)[C@@H](NC(=O)[C@H](CCCCN)NC(=O)[C@@H](N)CCCNC(=N)N)CSSC[C@@H](C(=O)O)NC(=O)[C@H]([C@@H](C)O)NC(=O)CNC(=O)[C@@H]2CSSC[C@@H]3NC(=O)[C@H](CCC(N)=O)NC(=O)[C@H](Cc4ccccc4)NC(=O)[C@H](C)NC(=O)[C@H]([C@@H](C)O)NC(=O)[C@H](CSSC[C@H](NC(=O)[C@H](Cc4ccccc4)NC(=O)[C@H](CO)NC(=O)[C@H](CC(C)C)NC(=O)[C@H](CCCNC(=N)N)NC(=O)[C@H](Cc4ccc(O)cc4)NC(=O)[C@H](CCCCN)NC(=O)[C@H](CCSC)NC(=O)[C@H](CO)NC(=O)[C@H](Cc4c[nH]cn4)NC(=O)[C@H](CCCCN)NC3=O)C(=O)N[C@@H](CCCNC(=N)N)C(=O)N[C@@H](CCCCN)C(=O)N[C@@H]([C@@H](C)O)C(=O)N2)NC(=O)[C@H](CCCNC(=N)N)NC(=O)[C@H](CO)NC(=O)[C@H](CCCCN)NC(=O)[C@@H]2CCCN2C(=O)[C@H]([C@@H](C)CC)NC(=O)[C@H]([C@@H](C)O)NC(=O)[C@H](CC(=O)O)NC1=O` [[Lys2]ShK], the IC50 in assay [1] was 0.149 nM; in assay [2] it was 0.099 nM; in assay [3] it was 0.093 nM.
Consider `CC[C@H](C)[C@@H]1NC(=O)[C@@H](NC(=O)[C@H](CO)NC(=O)[C@@H](N)CCCNC(=N)N)CSSC[C@@H](C(=O)O)NC(=O)[C@H]([C@@H](C)O)NC(=O)CNC(=O)[C@@H]2CSSC[C@@H]3NC(=O)[C@H](CCC(N)=O)NC(=O)[C@H](Cc4ccccc4)NC(=O)[C@H](C)NC(=O)[C@H]([C@@H](C)O)NC(=O)[C@H](CSSC[C@H](NC(=O)[C@H](Cc4ccccc4)NC(=O)[C@H](CO)NC(=O)[C@H](CC(C)C)NC(=O)[C@H](CCCNC(=N)N)NC(=O)[C@H](Cc4ccc(O)cc4)NC(=O)[C@H](CCCCN)NC(=O)[C@H](CCSC)NC(=O)[C@H](CO)NC(=O)[C@H](Cc4c[nH]cn4)NC(=O)[C@H](CCCCN)NC3=O)C(=O)N[C@@H](CCCNC(=N)N)C(=O)N[C@@H](CCCCN)C(=O)N[C@@H]([C@@H](C)O)C(=O)N2)NC(=O)[C@H](CCCNC(=N)N)NC(=O)[C@H](CO)NC(=O)[C@H](CCCCN)NC(=O)[C@@H]2CCCN2C(=O)[C@H](CCCCN)NC(=O)[C@H]([C@@H](C)O)NC(=O)[C@H](CC(=O)O)NC1=O` [[Lys7]ShK], for which the IC50 in assay [1] was 0.792 nM; in assay [2], 4.67 nM; in assay [3], 13.5 nM.
With `CC[C@H](C)[C@@H]1NC(=O)[C@@H](NC(=O)[C@H](CO)NC(=O)[C@@H](N)CCCNC(=N)N)CSSC[C@@H](C(=O)O)NC(=O)[C@H]([C@@H](C)O)NC(=O)CNC(=O)[C@@H]2CSSC[C@@H]3NC(=O)[C@H](CCC(N)=O)NC(=O)[C@H](Cc4ccccc4)NC(=O)[C@H](C)NC(=O)[C@H]([C@@H](C)O)NC(=O)[C@H](CSSC[C@H](NC(=O)[C@H](Cc4ccccc4)NC(=O)[C@H](CO)NC(=O)[C@H](CC(C)C)NC(=O)[C@H](CCCNC(=N)N)NC(=O)[C@H](Cc4ccc(O)cc4)NC(=O)[C@H](CCCCN)NC(=O)[C@H](CCSC)NC(=O)[C@H](CO)NC(=O)[C@H](Cc4c[nH]cn4)NC(=O)[C@H](CCCCN)NC3=O)C(=O)N[C@@H](CCCNC(=N)N)C(=O)N[C@@H](CCCCN)C(=O)N[C@@H]([C@@H](C)O)C(=O)N2)NC(=O)[C@H](CCCNC(=N)N)NC(=O)[C@H](CCCCN)NC(=O)[C@H](CCCCN)NC(=O)[C@@H]2CCCN2C(=O)[C@H]([C@@H](C)CC)NC(=O)[C@H]([C@@H](C)O)NC(=O)[C@H](CC(=O)O)NC1=O` [[Lys10]ShK], the IC50 came to 0.174 nM in assay [1], 0.052 nM in assay [2] and 0.082 nM in assay [3].
The corresponding values for `CC[C@H](C)[C@@H]1NC(=O)[C@@H](NC(=O)[C@H](CO)NC(=O)[C@@H](N)CCCNC(=N)N)CSSC[C@@H](C(=O)O)NC(=O)[C@H]([C@@H](C)O)NC(=O)CNC(=O)[C@@H]2CSSC[C@@H]3NC(=O)[C@H](CCC(N)=O)NC(=O)[C@H](Cc4ccccc4)NC(=O)[C@H](C)NC(=O)[C@H](CCCCN)NC(=O)[C@H](CSSC[C@H](NC(=O)[C@H](Cc4ccccc4)NC(=O)[C@H](CO)NC(=O)[C@H](CC(C)C)NC(=O)[C@H](CCCNC(=N)N)NC(=O)[C@H](Cc4ccc(O)cc4)NC(=O)[C@H](CCCCN)NC(=O)[C@H](CCSC)NC(=O)[C@H](CO)NC(=O)[C@H](Cc4c[nH]cn4)NC(=O)[C@H](CCCCN)NC3=O)C(=O)N[C@@H](CCCNC(=N)N)C(=O)N[C@@H](CCCCN)C(=O)N[C@@H]([C@@H](C)O)C(=O)N2)NC(=O)[C@H](CCCNC(=N)N)NC(=O)[C@H](CO)NC(=O)[C@H](CCCCN)NC(=O)[C@@H]2CCCN2C(=O)[C@H]([C@@H](C)CC)NC(=O)[C@H]([C@@H](C)O)NC(=O)[C@H](CC(=O)O)NC1=O` [[Lys13]ShK] are 0.157 nM, 0.257 nM and 0.363 nM.
As to `CC[C@H](C)[C@@H]1NC(=O)[C@@H](NC(=O)[C@H](CO)NC(=O)[C@@H](N)CCCNC(=N)N)CSSC[C@@H](C(=O)O)NC(=O)[C@H]([C@@H](C)O)NC(=O)CNC(=O)[C@@H]2CSSC[C@@H]3NC(=O)[C@H](CCC(N)=O)NC(=O)[C@H](Cc4ccccc4)NC(=O)[C@H](CCCCN)NC(=O)[C@H]([C@@H](C)O)NC(=O)[C@H](CSSC[C@H](NC(=O)[C@H](Cc4ccccc4)NC(=O)[C@H](CO)NC(=O)[C@H](CC(C)C)NC(=O)[C@H](CCCNC(=N)N)NC(=O)[C@H](Cc4ccc(O)cc4)NC(=O)[C@H](CCCCN)NC(=O)[C@H](CCSC)NC(=O)[C@H](CO)NC(=O)[C@H](Cc4c[nH]cn4)NC(=O)[C@H](CCCCN)NC3=O)C(=O)N[C@@H](CCCNC(=N)N)C(=O)N[C@@H](CCCCN)C(=O)N[C@@H]([C@@H](C)O)C(=O)N2)NC(=O)[C@H](CCCNC(=N)N)NC(=O)[C@H](CO)NC(=O)[C@H](CCCCN)NC(=O)[C@@H]2CCCN2C(=O)[C@H]([C@@H](C)CC)NC(=O)[C@H]([C@@H](C)O)NC(=O)[C@H](CC(=O)O)NC1=O` [[Lys14]ShK], the values for the IC50 in assay [1], in assay [2] and in assay [3] were 0.073 nM, 0.075 nM and 0.202 nM, respectively.
Turning to `CC[C@H](C)[C@@H]1NC(=O)[C@@H](NC(=O)[C@H](CO)NC(=O)[C@@H](N)CCCNC(=N)N)CSSC[C@@H](C(=O)O)NC(=O)[C@H]([C@@H](C)O)NC(=O)CNC(=O)[C@@H]2CSSC[C@@H]3NC(=O)[C@H](CCC(N)=O)NC(=O)[C@H](CCCCN)NC(=O)[C@H](C)NC(=O)[C@H]([C@@H](C)O)NC(=O)[C@H](CSSC[C@H](NC(=O)[C@H](Cc4ccccc4)NC(=O)[C@H](CO)NC(=O)[C@H](CC(C)C)NC(=O)[C@H](CCCNC(=N)N)NC(=O)[C@H](Cc4ccc(O)cc4)NC(=O)[C@H](CCCCN)NC(=O)[C@H](CCSC)NC(=O)[C@H](CO)NC(=O)[C@H](Cc4c[nH]cn4)NC(=O)[C@H](CCCCN)NC3=O)C(=O)N[C@@H](CCCNC(=N)N)C(=O)N[C@@H](CCCCN)C(=O)N[C@@H]([C@@H](C)O)C(=O)N2)NC(=O)[C@H](CCCNC(=N)N)NC(=O)[C@H](CO)NC(=O)[C@H](CCCCN)NC(=O)[C@@H]2CCCN2C(=O)[C@H]([C@@H](C)CC)NC(=O)[C@H]([C@@H](C)O)NC(=O)[C@H](CC(=O)O)NC1=O` [[Lys15]ShK], the IC50 in assay [1] amounted to 0.295 nM; in assay [2], 0.465 nM; in assay [3], 0.991 nM.
